# Reference: paper PMC3563359 (Nature communications, 2012)
# Legend:
# SK2-a channels = SK2-a channels (Rattus norvegicus, UniProt P0DP29+P70604); assay: Potentiation of WT SK2-a channel currents, inside-out patch, TsA201 cells; assay type: cell-based
# [1] = cited from earlier work
# EDHF-mediated responses = settings: cited from earlier work
# [2] = ratio of EC50s, SK2-a, 200 nM Ca2+
# SK2-a channels, sequence (P70604 whole entry, one chain of several): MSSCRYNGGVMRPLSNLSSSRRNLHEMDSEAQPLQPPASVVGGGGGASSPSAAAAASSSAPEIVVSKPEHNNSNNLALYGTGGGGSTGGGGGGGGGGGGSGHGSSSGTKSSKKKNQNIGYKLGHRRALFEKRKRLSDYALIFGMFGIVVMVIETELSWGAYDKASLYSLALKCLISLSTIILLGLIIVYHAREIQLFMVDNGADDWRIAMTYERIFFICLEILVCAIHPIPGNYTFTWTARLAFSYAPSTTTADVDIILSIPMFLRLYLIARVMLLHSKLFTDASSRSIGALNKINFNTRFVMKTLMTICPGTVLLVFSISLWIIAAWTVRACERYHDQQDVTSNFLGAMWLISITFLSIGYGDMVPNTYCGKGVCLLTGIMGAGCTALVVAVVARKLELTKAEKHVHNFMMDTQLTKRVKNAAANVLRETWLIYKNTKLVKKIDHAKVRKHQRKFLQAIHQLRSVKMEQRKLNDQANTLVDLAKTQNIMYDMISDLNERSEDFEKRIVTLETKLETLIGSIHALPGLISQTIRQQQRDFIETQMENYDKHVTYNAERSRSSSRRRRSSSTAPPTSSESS
EC50 (SK2-a channels) [mM],"Hill coefficient of potentiation of SK2-a channel activity (SK2-a channels; 200 nM Ca2+, inside-out patch)",fold less potent compared to NS309 (SK2-a channels; [2]),fold less potent than DCEBIO (SK2-a channels; [2]) [fold],SMILES,effect on blood pressure [1],effect on EDHF-mediated responses (EDHF-mediated responses)
1.61 ± 0.2,1.81 ± 0.22,more than 3600 fold,~75,"NC(=O)Nc1ccccc1 [PHU, phenylurea]",,
,,,,"Nc1nc2c(ccc3ccccc32)s1 [SKA-31, Naphtho[1,2-d]thiazol-2-ylamine]",lowers the blood pressure,enhances
